Reference: patent US9403835B2, “Tetraaza-cyclopenta[a]indenyl and their use as positive allosteric modulators” (Merck Patent GmbH, priority 2011, dated 2016)

Molecular target: T1, muscarinic M1 receptor (Homo sapiens, UniProt P11229)
T1 construct: expressed in transfected cells; host or cells: CHO (M1-CHO cells)
T1 sequence (P11229 1-460): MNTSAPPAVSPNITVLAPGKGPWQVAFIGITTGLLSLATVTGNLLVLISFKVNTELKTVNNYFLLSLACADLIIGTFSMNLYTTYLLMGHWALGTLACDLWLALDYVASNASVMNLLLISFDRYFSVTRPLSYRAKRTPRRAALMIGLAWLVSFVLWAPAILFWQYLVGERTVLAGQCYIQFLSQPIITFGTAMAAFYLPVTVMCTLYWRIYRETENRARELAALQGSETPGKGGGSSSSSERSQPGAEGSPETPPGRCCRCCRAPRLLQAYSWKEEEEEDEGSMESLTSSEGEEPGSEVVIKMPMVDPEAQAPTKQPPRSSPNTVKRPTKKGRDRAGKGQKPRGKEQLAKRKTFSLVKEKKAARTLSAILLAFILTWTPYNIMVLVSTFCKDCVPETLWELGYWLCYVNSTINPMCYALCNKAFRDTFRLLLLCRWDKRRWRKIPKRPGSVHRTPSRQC
Test: M1 PAM Assay (IP-One HTRF, IP1 in M1-CHO cells with EC20 of acetylcholine)
Assay type: cell-based
Conditions: 1 hour at room temperature, IP1 readout
Protocol: M1-CHO cells are plated in culture medium (HAM's F12, P/S, 10% FCS) on the day before the experiment with 10 000 cells/well in a 384 well plate (3750 Corning White 384 w plate with lid). On the day of experiment, cells are washed with PBS and IPone buffer is added (glucose 5.5 mM, NaCl 146 mM, MgCl2 0.5 mM, HEPES 10 mM, LiCl 50 mM, CaCl2 1 mM, KCl 4.2 mM). Then diluted compounds (1% DMSO final concentration) are added together with EC20 of acetylcholine and incubated with the cells for 1 hour at room temperature. The intracellular concentration of IP1 is then measured using the IP-One HTRF assay from Cisbio.

Structure (SMILES) | EC50 [nM]
CCOc1ccccc1C(=O)N1Cc2nn3cc(Br)cnc3c2C1 [Example 48, (6-bromo-1H,3H-2,4,7a,8-tetraaza-cyclopenta[a]inden-2-yl)-(2-ethoxy-phenyl)-methanone] | 1000 to 2000
Cc1cn2nc3c(c2nc1C)CN(C(=O)c1ccccc1OCCN(C)C)C3 [Example 32, [2-(2-dimethylamino-ethoxy)-phenyl]-(5,6-dimethyl-1H,3H-2,4,7a,8-tetraaza-cyclopenta[a]inden-2-yl)-methanone] | 1000 to 2000
CCOc1ccccc1C(=O)N1Cc2nn3cc(C)c(C)nc3c2C1 [Example 31, (5,6-Dimethyl-1H,3H-2,4,7a,8-tetraaza-cyclopenta[a]inden-2-yl)-(2-ethoxy-phenyl)-methanone] | 1000 to 2000
CCCCOc1ccccc1C(=O)N1Cc2nn3c(C)c(C)c(C)nc3c2C1 [Example 21, (2-butoxy-phenyl)-(5,6,7-trimethyl-1H,3H-2,4,7a,8-tetraaza-cyclopenta[a]inden-2-yl)-methanone] | 200 to 1000
CCOc1ccc(Cl)cc1C(=O)N1Cc2nn3c(C)c(C)c(C)nc3c2C1 [Example 34, (5-chloro-2-ethoxy-phenyl)-(5,6,7-trimethyl-1H,3H-2,4,7a,8-tetraaza-cyclopenta[a]inden-2-yl)-methanone] | 1000 to 2000
CCOc1ccccc1C(=O)N1Cc2nn3c(C)c(CC)c(C)nc3c2C1 [Example 27, (2-ethoxy-phenyl)-(6-ethyl-5,7-dimethyl-1H,3H-2,4,7a,8-tetraaza-cyclopenta[a]inden-2-yl)-methanone] | 1000 to 2000
Cc1cnc2c3c(nn2c1)CN(C(=O)c1ccccc1OCCN(C)C)C3 [Example 47, [2-(2-dimethylamino-ethoxy)-phenyl]-(6-methyl-1H,3H-2,4,7a,8-tetraaza-cyclopenta[a]inden-2-yl)-methanone] | 1000 to 2000
Cc1nc2c3c(nn2c(C)c1C)CN(C(=O)c1ccccc1N1CCN(C)CC1)C3 [Example 36, [2-(4-methyl-piperazin-1-yl)-phenyl]-(5,6,7-trimethyl-1H,3H-2,4,7a,8-tetraaza-cyclopenta[a]inden-2-yl)-methanone] | 1000 to 2000
COC(=O)c1ccccc1C(=O)N1Cc2nn3c(C)c(C)c(C)nc3c2C1 [Example 44, 2-(5,6,7-trimethyl-1H,3H-2,4,7a,8-tetraaza-cyclopenta[a]indene-2-carbonyl)-benzoic acid methyl ester] | 1000 to 2000
Cc1nc2c3c(nn2c(C)c1C)CN(C(=O)c1ccccc1OCc1ccccc1)C3 [Example 29, (2-benzyloxy-phenyl)-(5,6,7-trimethyl-1H,3H-2,4,7a,8-tetraaza-cyclopenta[a]inden-2-yl)-methanone] | 1000 to 2000
Cc1cnc2c3c(nn2c1C)CN(C(=O)c1ccccc1N1CCCN(C)CC1)C3 [Example 41, (6,7-dimethyl-1H,3H-2,4,7a,8-tetraaza-cyclopenta[a]inden-2-yl)-[2-(4-methyl-[1,4]diazepan-1-yl)-phenyl]-methanone] | 1000 to 2000
Cc1nc2c3c(nn2c(C)c1Cl)CN(C(=O)c1ccccc1OC1CCOCC1)C3 [Example 35, (6-chloro-5,7-dimethyl-1H,3H-2,4,7a,8-tetraaza-cyclopenta[a]inden-2-yl)-[2-(tetrahydro-pyran-4-yloxy)-phenyl]-methanone] | 1000 to 2000
Cc1nc2c3c(nn2c(C)c1C)CN(C(=O)c1ccccc1-n1cccn1)C3 [Example 39, (2-pyrazol-1-yl-phenyl)-(5,6,7-trimethyl-1H,3H-2,4,7a,8-tetraaza-cyclopenta[a]inden-2-yl)-methanone] | 1000 to 2000
Cc1cn2nc3c(c2nc1C)CN(C(=O)c1ccccc1N1CCCN(C)CC1)C3 [Example 33, (5,6-dimethyl-1H,3H-2,4,7a,8-tetraaza-cyclopenta[a]inden-2-yl)-[2-(4-methyl-[1,4]diazepan-1-yl)-phenyl]-methanone] | 1000 to 2000

Results, then the compound that gave them:

EC50 [nM] | Structure (SMILES)
1000 to 2000 | Cc1cnc2c3c(nn2c1C)CN(C(=O)c1ccccc1OCCN(C)C)C3 [Example 38, [2-(2-dimethylamino-ethoxy)-phenyl]-(6,7-dimethyl-1H,3H-2,4,7a,8-tetraaza-cyclopenta[a]inden-2-yl)-methanone]
200 to 1000 | CCOc1ccccc1C(=O)N1Cc2nn3c(C)c(C)c(C)nc3c2C1 [Example 12, (2-ethoxy-phenyl)-(5,6,7-trimethyl-1H,3H-2,4,7a,8-tetraaza-cyclopenta[a]inden-2-yl)-methanone]
200 to 1000 | Cc1nc2c3c(nn2c(C)c1C)CN(C(=O)c1ccccc1OCCN1CCCCC1)C3 [Example 20, [2-(2-piperidin-1-yl-ethoxy)-phenyl]-(5,6,7-trimethyl-1H,3H-2,4,7a,8-tetraaza-cyclopenta[a]inden-2-yl)-methanone]
1000 to 2000 | CCOc1ccccc1C(=O)N1Cc2nn3cc(Cl)cnc3c2C1 [Example 46, (6-chloro-1H,3H-2,4,7a,8-tetraaza-cyclopenta[a]inden-2-yl)-(2-ethoxy-phenyl)-methanone]
200 to 1000 | Cc1nc2c3c(nn2c(C)c1C)CN(C(=O)c1ccccc1N1CCCN(C)CC1)C3 [Example 19, [2-(4-methyl-[1,4]diazepan-1-yl)-phenyl]-(5,6,7-trimethyl-1H,3H-2,4,7a,8-tetraaza-cyclopenta[a]inden-2-yl)-methanone]
< 200 | Cc1nc2c3c(nn2c(C)c1Cl)CN(C(=O)c1ccccc1OC1CCNCC1)C3 [Example 3, (6-chloro-5,7-dimethyl-1H,3H-2,4,7a,8-tetraaza-cyclopenta[a]inden-2-yl)-[2-(piperidin-4-yloxy)-phenyl]-methanone]
200 to 1000 | CCOc1ccc(F)cc1C(=O)N1Cc2nn3c(C)c(C)c(C)nc3c2C1 [Example 13, (2-ethoxy-5-fluoro-phenyl)-(5,6,7-trimethyl-1H,3H-2,4,7a,8-tetraaza-cyclopenta[a]inden-2-yl)-methanone]
200 to 1000 | Cc1nc2c3c(nn2c(C)c1Cl)CN(C(=O)c1ccccc1N1CCCN(C)CC1)C3 [Example 6, (6-chloro-5,7-dimethyl-1H,3H-2,4,7a,8-tetraaza-cyclopenta[a]inden-2-yl)-[2-(4-methyl-[1,4]diazepan-1-yl)-phenyl]-methanone]
200 to 1000 | Cc1nc2c3c(nn2c(C)c1Cl)CN(C(=O)c1ccccc1OC(C)C)C3 [Example 9, (6-chloro-5,7-dimethyl-1H,3H-2,4,7a,8-tetraaza-cyclopenta[a]inden-2-yl)-(2-isopropoxy-phenyl)-methanone]
200 to 1000 | Cc1nc2c3c(nn2c(C)c1C)CN(C(=O)c1ccccc1OCCn1cccn1)C3 [Example 24, [2-(2-pyrazol-1-yl-ethoxy)-phenyl]-(5,6,7-trimethyl-1H,3H-2,4,7a,8-tetraaza-cyclopenta[a]inden-2-yl)-methanone]
200 to 1000 | Cc1nc2c3c(nn2c(C)c1Cl)CN(C(=O)c1ccccc1N1CCCC1)C3 [Example 7, (6-chloro-5,7-dimethyl-1H,3H-2,4,7a,8-tetraaza-cyclopenta[a]inden-2-yl)-(2-pyrrolidin-1-yl-phenyl)-methanone]
200 to 1000 | Cc1nc2c3c(nn2c(C)c1C)CN(C(=O)c1ccccc1OC(C)C)C3 [Example 26, (2-isopropoxy-phenyl)-(5,6,7-trimethyl-1H,3H-2,4,7a,8-tetraaza-cyclopenta[a]inden-2-yl)-methanone]
< 200 | Cc1nc2c3c(nn2c(C)c1Cl)CN(C(=O)c1ccccc1OC(F)(F)C(F)F)C3 [Example 2, (6-chloro-5,7-dimethyl-1H,3H-2,4,7a,8-tetraaza-cyclopenta[a]inden-2-yl)-[2-(1,1,2,2-tetrafluoro-ethoxy)-phenyl]-methanone]
200 to 1000 | Cc1nc2c3c(nn2c(C)c1C)CN(C(=O)c1ccccc1OC(F)(F)F)C3 [Example 17, (2-trifluoromethoxy-phenyl)-(5,6,7-trimethyl-1H,3H-2,4,7a,8-tetraaza-cyclopenta[a]inden-2-yl)-methanone]
200 to 1000 | CC(=O)Oc1ccccc1C(=O)N1Cc2nn3c(C)c(C)c(C)nc3c2C1 [Example 23, acetic acid 2-(5,6,7-trimethyl-1H,3H-2,4,7a,8-tetraaza-cyclopenta[a]indene-2-carbonyl)-phenyl ester]
200 to 1000 | Cc1nc2c3c(nn2c(C)c1C)CN(C(=O)c1ccccc1OC1CCN(C)CC1)C3 [Example 4, [2-(1-methyl-piperidin-4-yloxy)-phenyl]-(5,6,7-trimethyl-1H,3H-2,4,7a,8-tetraaza-cyclopenta[a]inden-2-yl)-methanone]
< 200 | Cc1nc2c3c(nn2c(C)c1Cl)CN(C(=O)c1ccccc1OC1CCN(C)CC1)C3 [Example 1, (6-chloro-5,7-dimethyl-1H,3H-2,4,7a,8-tetraaza-cyclopenta[a]inden-2-yl)-[2-(1-methyl-piperidin-4-yloxy)-phenyl]-methanone]
200 to 1000 | CSc1ccccc1C(=O)N1Cc2nn3c(C)c(C)c(C)nc3c2C1 [Example 25, (2-methylsulfanyl-phenyl)-(5,6,7-trimethyl-1H,3H-2,4,7a,8-tetraaza-cyclopenta[a]inden-2-yl)-methanone]
